Source: patent publication US9346799B2, “Useful combinations of monobactam antibiotics with beta-lactamase inhibitors” (Basilea Pharmaceutica AG, priority 2005, dated 2016)

How the values were obtained:
Test in all cases: MIC by broth microdilution (NCCLS M7-A5)
[1] = system: Enterobacter cloacae B1102; details: E. cloacae B1102
[2] = system: Enterobacter cloacae ATCC13047/CRO-R; details: E. cloacae ATCC13047/CRO-R
[3] = system: Enterobacter cloacae M4018; details: E. cloacae M4018
Enterobacter cloacae MRW = details: E. cloacae MRW
[4] = system: Enterobacter aerogenes Zayakosky; details: E. aerogenes Zayakosky
[5] = system: Enterobacter aerogenes B1; details: E. aerogenes B1
Acinetobacter sp. J2 = system: Acinetobacter sp. J2
[6] = system: Pseudomonas aeruginosa MK1184
[7] = system: Pseudomonas aeruginosa 1973E
Enterobacter cloacae P99 = system: Enterobacter cloacae P99
[8] = system: Klebsiella pneumoniae CF104
Serratia marcescens S6 = system: Serratia marcescens S6
[9] = system: Stenotrophomonas malthophilia 1AC736; details: Stenotrophomonas maltophilia 1AC736
[10] = + compound 323 and clavulanate, 4 mg/L each
[11] = + 102 + clavulanate, 4 mg/L each
[12] = + 103 + clavulanate, 4 mg/L each
[13] = + 111 + clavulanate, 4 mg/L each
[14] = + 202 + clavulanate, 4 mg/L each
[15] = + 206 + clavulanate, 4 mg/L each
[16] = + 323 + clavulanate, 4 mg/L each
[17] = + 324 + clavulanate, 4 mg/L each

CC1C(NC(=O)C(=NOCc2cc(=O)c(O)cn2O)c2csc(N)n2)C(=O)N1S(=O)(=O)O (centres unmarked) [Compound 1]
8 mg/L: Minimal Inhibitory Concentration of antibiotic [1, 10] | Minimal Inhibitory Concentration of antibiotic [2, 10] | Minimal Inhibitory Concentration of antibiotic ([3]; + compound 206 at fixed 4 mg/L)
4 mg/L: Minimal Inhibitory Concentration of antibiotic (Enterobacter cloacae MRW; [10]) | Minimal Inhibitory Concentration of antibiotic [5, 10]
2 µg/mL: MIC of antibiotic (Acinetobacter sp. J2; Acinetobacter baumannii J2, + 102 + sulbactam, 4 mg/L each) | MIC of antibiotic [7, 11] | MIC of antibiotic [8, 14] | MIC of antibiotic [8, 16] | MIC of antibiotic ([9]; + 102 + sulbactam, 4 mg/L each)
<0.06 µg/mL: MIC of antibiotic (Acinetobacter sp. J2; Acinetobacter baumannii J2, + 501 4 mg/L) | MIC of antibiotic [8, 13]
>32 mg/L: Minimal Inhibitory Concentration of antibiotic ([1]; antibiotic alone) | Minimal Inhibitory Concentration of antibiotic ([2]; + clavulanate at fixed 4 mg/L) | Minimal Inhibitory Concentration of antibiotic ([2]; + compound 206 at fixed 4 mg/L) | Minimal Inhibitory Concentration of antibiotic ([2]; + compound 501 at fixed 4 mg/L) | Minimal Inhibitory Concentration of antibiotic ([2]; antibiotic alone) | Minimal Inhibitory Concentration of antibiotic ([3]; + clavulanate at fixed 4 mg/L) | Minimal Inhibitory Concentration of antibiotic (Enterobacter cloacae MRW; antibiotic alone) | Minimal Inhibitory Concentration of antibiotic ([4]; + clavulanate at fixed 4 mg/L) | Minimal Inhibitory Concentration of antibiotic ([4]; + compound 206 at fixed 4 mg/L) | Minimal Inhibitory Concentration of antibiotic ([4]; + compound 501 at fixed 4 mg/L) | Minimal Inhibitory Concentration of antibiotic ([4]; antibiotic alone) | Minimal Inhibitory Concentration of antibiotic ([5]; + clavulanate at fixed 4 mg/L) | Minimal Inhibitory Concentration of antibiotic ([5]; + compound 501 at fixed 4 mg/L)
16 µg/mL: MIC of antibiotic (Acinetobacter sp. J2; Acinetobacter baumannii J2, + 323 + clavulanate, 4 mg/L each) | MIC of antibiotic [6, 16] | MIC of antibiotic ([7]; antibiotic alone) | MIC of antibiotic (Enterobacter cloacae P99; [14]) | MIC of antibiotic (Enterobacter cloacae P99; + 501 4 mg/L)
>22 µg/mL: MIC of antibiotic (Acinetobacter sp. J2; Acinetobacter sp. J2, antibiotic alone, no inhibitor)
0.25 µg/mL: MIC of antibiotic [8, 15] | MIC of antibiotic (Serratia marcescens S6; [11]) | MIC of antibiotic (Serratia marcescens S6; [12]) | MIC of antibiotic (Serratia marcescens S6; [13]) | MIC of antibiotic (Serratia marcescens S6; [16]) | MIC of antibiotic ([9]; + 501 4 mg/L)
16 mg/L: Minimal Inhibitory Concentration of antibiotic ([1]; + compound 206 at fixed 4 mg/L) | Minimal Inhibitory Concentration of antibiotic ([1]; + compound 501 at fixed 4 mg/L) | Minimal Inhibitory Concentration of antibiotic ([3]; + compound 501 at fixed 4 mg/L) | Minimal Inhibitory Concentration of antibiotic (Enterobacter cloacae MRW; + compound 206 at fixed 4 mg/L) | Minimal Inhibitory Concentration of antibiotic [4, 10] | Minimal Inhibitory Concentration of antibiotic ([5]; + compound 206 at fixed 4 mg/L)
0.125 µg/mL: MIC of antibiotic [9, 11] | MIC of antibiotic [9, 12] | MIC of antibiotic [9, 13] | MIC of antibiotic [9, 14] | MIC of antibiotic [9, 15] | MIC of antibiotic [9, 16] | MIC of antibiotic ([9]; + 323 + sulbactam, 4 mg/L each) | MIC of antibiotic [9, 17]
4 µg/mL: MIC of antibiotic (Acinetobacter sp. J2; Acinetobacter baumannii J2, + 102 + clavulanate, 4 mg/L each) | MIC of antibiotic (Acinetobacter sp. J2; Acinetobacter baumannii J2, + 111 + clavulanate, 4 mg/L each) | MIC of antibiotic (Acinetobacter sp. J2; Acinetobacter baumannii J2, + 202 + clavulanate, 4 mg/L each) | MIC of antibiotic (Acinetobacter sp. J2; Acinetobacter baumannii J2, + 206 + clavulanate, 4 mg/L each) | MIC of antibiotic [6, 11] | MIC of antibiotic ([6]; + 323 + sulbactam, 4 mg/L each) | MIC of antibiotic ([7]; + 102 + sulbactam, 4 mg/L each) | MIC of antibiotic [7, 12] | MIC of antibiotic [7, 13] | MIC of antibiotic [7, 14] | MIC of antibiotic [7, 15] | MIC of antibiotic ([7]; + 323 + sulbactam, 4 mg/L each) | MIC of antibiotic (Enterobacter cloacae P99; [11]) | MIC of antibiotic (Enterobacter cloacae P99; [13]) | MIC of antibiotic (Enterobacter cloacae P99; [16]) | MIC of antibiotic (Enterobacter cloacae P99; + 323 + sulbactam, 4 mg/L each) | MIC of antibiotic (Enterobacter cloacae P99; [17]) | MIC of antibiotic (Serratia marcescens S6; [15]) | MIC of antibiotic (Serratia marcescens S6; + 501 4 mg/L) | MIC of antibiotic (Serratia marcescens S6; + clavulanate 4 mg/L)
2 mg/L: Minimal Inhibitory Concentration of antibiotic [3, 10]
32 µg/mL: MIC of antibiotic (Acinetobacter sp. J2; Acinetobacter baumannii J2, + 324 + clavulanate, 4 mg/L each) | MIC of antibiotic ([6]; + 102 + sulbactam, 4 mg/L each) | MIC of antibiotic (Enterobacter cloacae P99; [12]) | MIC of antibiotic (Enterobacter cloacae P99; + clavulanate 4 mg/L)
32 mg/L: Minimal Inhibitory Concentration of antibiotic ([1]; + clavulanate at fixed 4 mg/L) | Minimal Inhibitory Concentration of antibiotic ([3]; antibiotic alone) | Minimal Inhibitory Concentration of antibiotic (Enterobacter cloacae MRW; + clavulanate at fixed 4 mg/L) | Minimal Inhibitory Concentration of antibiotic (Enterobacter cloacae MRW; + compound 501 at fixed 4 mg/L) | Minimal Inhibitory Concentration of antibiotic ([5]; antibiotic alone)
0.5 µg/mL: MIC of antibiotic [8, 12] | MIC of antibiotic ([8]; + 501 4 mg/L) | MIC of antibiotic ([8]; + clavulanate 4 mg/L) | MIC of antibiotic (Serratia marcescens S6; + 102 + sulbactam, 4 mg/L each) | MIC of antibiotic (Serratia marcescens S6; [14]) | MIC of antibiotic (Serratia marcescens S6; + 323 + sulbactam, 4 mg/L each) | MIC of antibiotic ([9]; + clavulanate 4 mg/L)
>32 µg/mL: MIC of antibiotic (Acinetobacter sp. J2; Acinetobacter baumannii J2, + clavulanate 4 mg/L) | MIC of antibiotic (Acinetobacter sp. J2; Acinetobacter baumannii J2, antibiotic alone) | MIC of antibiotic [6, 15] | MIC of antibiotic ([6]; + 501 4 mg/L) | MIC of antibiotic ([6]; + clavulanate 4 mg/L) | MIC of antibiotic ([6]; antibiotic alone) | MIC of antibiotic (Enterobacter cloacae P99; antibiotic alone) | MIC of antibiotic ([8]; antibiotic alone) | MIC of antibiotic (Serratia marcescens S6; antibiotic alone)
1 µg/mL: MIC of antibiotic (Acinetobacter sp. J2; Acinetobacter baumannii J2, + 323 + sulbactam, 4 mg/L each) | MIC of antibiotic [8, 11] | MIC of antibiotic ([8]; + 102 + sulbactam, 4 mg/L each) | MIC of antibiotic ([8]; + 323 + sulbactam, 4 mg/L each) | MIC of antibiotic [8, 17] | MIC of antibiotic (Serratia marcescens S6; [17]) | MIC of antibiotic (Serratia marcescens S6; antibiotic alone, no inhibitor) | MIC of antibiotic ([9]; antibiotic alone)
8 µg/mL: MIC of antibiotic (Acinetobacter sp. J2; Acinetobacter baumannii J2, + 103 + clavulanate, 4 mg/L each) | MIC of antibiotic [6, 12] | MIC of antibiotic [6, 13] | MIC of antibiotic [6, 14] | MIC of antibiotic [6, 17] | MIC of antibiotic [7, 16] | MIC of antibiotic [7, 17] | MIC of antibiotic ([7]; + 501 4 mg/L) | MIC of antibiotic ([7]; + clavulanate 4 mg/L) | MIC of antibiotic (Enterobacter cloacae P99; + 102 + sulbactam, 4 mg/L each) | MIC of antibiotic (Enterobacter cloacae P99; [15])
